Assay results published in PMC7614683, “A small molecule PI3Kα activator for cardioprotection and neuroregeneration” (Nature, 2023).
Where “and” joins values, the source holds several entries; their conditions need not be identical. Equal values may be shown once.

Key:
[1] = target: T1, PI3Kα (Homo sapiens, UniProt P42336); assay: FRET membrane binding assay; type: biochemical; conditions: compared with pY
T1 construct: Full-length human p110α was expressed either in a complex with full-length human p85α (for HTS, biochemistry and HDX-MS); 6xHis tag followed by TEV protease site (N); host or cells: Spodoptera frugiperda Sf9, baculovirus
Protocol: Membrane binding assays were performed as previously published. Briefly, liposomes were prepared with 5% (w/v) brain PtdIns(4,5)P2, 20% brain phosphatidylserine, 35% brain phosphatidylethanolamine, 15% brain phosphatidylcholine, 10% cholesterol, 5% sphingomyelin, and 10% dansyl-phosphatidylserine (Avanti Polar Lipids). PI3Kα was used at a final concentration of 0.5 μM. Protein solutions were preincubated with 10 μM pY or compounds for 10 min before addition of liposomes. Liposomes were used at a final concentration of 50 μg/ml. The reaction mixture contained 5 μl enzyme, 2 μl compound and 3 μl liposomes, all diluted in 30 mM HEPES, 50 mM NaCl, pH 7.4. The reaction was allowed to proceed for 10 min at room temperature with 384 black-polystyrene plates (Corning #3544) on an orbital shaker at 200 rpm. FRET signals were measured using PHERAStar (BMG) with a 280 nm excitation filter with 350 nm and 520 nm emission filters to measure Dansyl-PS FRET emissions, respectively. FRET signal shown as I-I0, where I is the intensity at 520 nm, and I0 is the intensity at 520 nm for the solution in the absence of protein.

[2] = tested on: MCF10A cells; assay: pAKT S473 western blot, MCF10A; type: cell-based, human
[3] = tested on: isolated rat hearts; assay: Langendorff ex vivo perfused rat heart model of ischaemia reperfusion injury; conditions: 1938 5 μM or insulin 1 μM; Fig 5d, single hearts
Protocol: The Langendorff ex vivo perfused rat heart was used as an experimental model of IRI[79]. The animal experiments were conducted within the terms of the UK Animals (Scientific Procedures) Act 1986, under Project Licence number PPL 70/8556 (Protection of the Ischaemic and Reperfused Myocardium). All procedures conform to the guidelines from Directive 2010/63/EU of the European Parliament on the protection of animals used for scientific purposes. Male Sprague–Dawley rats were bred at a central animal unit in University College London and used at a weight of 250–350 g, and randomly assigned to experimental groups. Rats were anaesthetised by intraperitoneal injection of sodium pentobarbitone (60 mg/kg) (Animalcare, York, UK). […] Analysis of infarct size (IS) as a proportion of area at risk (AAR) was calculated via planimetry using imageJ software (version 1.45, National Institutes of Health, USA).
Alternatively, after 15 min reperfusion, perfusion was stopped and hearts were freeze-clamped in liquid nitrogen and frozen at -80°C. […] Protein content was determined by bicinchoninic acid (BCA) assay (Sigma-Aldrich, Gillingham, UK). […] The next day, membranes were probed with IRDye fluorescence-tagged secondary antibodies (#926-32211 and #926-68020; LI-COR Biosciences, Ltd. UK) and imaged and quantified using the Odyssey imaging system (Image Studio Lite Ver 5.2; LI-COR Biosciences, Cambridge, UK).

T1 sequence (P42336 whole entry): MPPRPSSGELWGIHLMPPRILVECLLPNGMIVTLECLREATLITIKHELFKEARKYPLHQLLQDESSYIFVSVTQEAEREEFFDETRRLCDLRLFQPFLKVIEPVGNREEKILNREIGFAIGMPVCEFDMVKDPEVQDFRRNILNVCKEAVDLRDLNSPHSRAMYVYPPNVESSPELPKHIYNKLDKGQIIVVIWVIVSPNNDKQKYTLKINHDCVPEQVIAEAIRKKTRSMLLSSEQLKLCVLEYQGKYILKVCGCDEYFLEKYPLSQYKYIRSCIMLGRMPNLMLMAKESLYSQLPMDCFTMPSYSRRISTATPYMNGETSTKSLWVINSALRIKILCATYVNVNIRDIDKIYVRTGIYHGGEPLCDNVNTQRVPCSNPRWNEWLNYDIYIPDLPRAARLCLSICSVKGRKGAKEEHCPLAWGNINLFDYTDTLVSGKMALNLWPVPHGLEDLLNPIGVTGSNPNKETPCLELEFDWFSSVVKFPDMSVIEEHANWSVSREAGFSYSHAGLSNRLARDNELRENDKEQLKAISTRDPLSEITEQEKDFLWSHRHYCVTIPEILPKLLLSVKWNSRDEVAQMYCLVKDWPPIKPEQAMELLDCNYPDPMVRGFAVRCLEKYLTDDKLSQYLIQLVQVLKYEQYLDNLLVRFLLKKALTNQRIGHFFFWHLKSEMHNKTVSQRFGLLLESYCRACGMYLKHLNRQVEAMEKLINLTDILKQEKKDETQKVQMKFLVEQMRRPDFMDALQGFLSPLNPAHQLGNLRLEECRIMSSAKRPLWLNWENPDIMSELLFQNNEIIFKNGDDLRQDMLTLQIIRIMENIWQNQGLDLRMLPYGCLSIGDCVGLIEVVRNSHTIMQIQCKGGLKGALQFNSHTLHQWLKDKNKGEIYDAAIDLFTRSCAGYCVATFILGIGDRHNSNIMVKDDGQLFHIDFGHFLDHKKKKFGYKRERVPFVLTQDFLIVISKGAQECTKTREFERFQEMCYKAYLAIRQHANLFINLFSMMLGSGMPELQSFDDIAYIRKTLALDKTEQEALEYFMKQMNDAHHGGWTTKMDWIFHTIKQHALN
T1 sequence (P27986 whole entry partner): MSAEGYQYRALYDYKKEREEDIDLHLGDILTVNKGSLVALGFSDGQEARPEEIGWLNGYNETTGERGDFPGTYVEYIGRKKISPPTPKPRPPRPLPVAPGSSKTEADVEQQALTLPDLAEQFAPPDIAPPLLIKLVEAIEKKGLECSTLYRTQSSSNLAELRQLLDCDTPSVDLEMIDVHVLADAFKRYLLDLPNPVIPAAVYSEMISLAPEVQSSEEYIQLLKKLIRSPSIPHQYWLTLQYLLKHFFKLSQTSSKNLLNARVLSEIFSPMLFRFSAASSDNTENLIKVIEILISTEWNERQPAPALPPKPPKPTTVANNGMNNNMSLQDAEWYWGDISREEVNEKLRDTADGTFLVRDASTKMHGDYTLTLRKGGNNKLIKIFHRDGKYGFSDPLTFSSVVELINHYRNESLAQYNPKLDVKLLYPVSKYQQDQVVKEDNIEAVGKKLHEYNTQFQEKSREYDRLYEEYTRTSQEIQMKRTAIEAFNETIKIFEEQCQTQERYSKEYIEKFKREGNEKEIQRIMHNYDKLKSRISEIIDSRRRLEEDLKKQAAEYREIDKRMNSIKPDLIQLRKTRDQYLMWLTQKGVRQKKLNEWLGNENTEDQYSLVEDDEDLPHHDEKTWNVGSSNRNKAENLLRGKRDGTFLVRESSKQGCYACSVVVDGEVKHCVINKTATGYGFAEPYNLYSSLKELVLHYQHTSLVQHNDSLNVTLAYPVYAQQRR

| Compound | PI3Kα binding to lipid membranes (FRET signal), maximum level [1] | pAKT^S473 increase [2] | Western blot pAkt in langendorff [3] |
| --- | --- | --- | --- |
| CCN1CCN(c2ccc(Nc3cc(Nc4cccc5c4N(C(C)=O)CC5)ccn3)cc2)CC1 [Compound 1938] | about half of that induced by pY | BYL719-sensitive increase in pAKT^S473 | – |
| insulin: insulin, canonical activator of PI3Kα, used as positive control | – | – | 3.259 and 3.657 |
